{
  "source": "paper PMC8835841",
  "about": "“Novel NK1R-Targeted ^68Ga-/^177Lu-Radioconjugates with Potential Application against Glioblastoma Multiforme: Preliminary Exploration of Structure–Activity Relationships” (International Journal of Molecular Sciences, 2022)",
  "key": {"physchem": {"test": "physchem", "format": "physicochemical", "protocol": "A lipophilicity study was also performed right after the SPE method purification and ethanol evaporation. For each DOTA radioconjugate, the lipophilicity value was estimated as the logarithm of the distribution coefficient (D) based on the ratio of the radioactivity of the organic phase to the radioactivity of the aqueous phase in the n-octanol/PBS (pH 7.40) system. Simultaneously, the stability of the studied radioconjugate during the experiment was verified through the HPLC analysis of the aqueous phase.\nA solution of isolated radioconjugate (approximately 0.5 MBq for ^177Lu-radioconjugates or 5 MBq for ^68Ga-radioconjugates) in 500 µL of 0.1 M PBS buffer (pH 7.40) and 500 µL of n-octanol was vigorously stirred and centrifuged (13,500 rpm for 5 min) to separate the immiscible phases. Then, the radioactivity of samples from both phases were measured using a well-type NaI(Tl) detector. The distribution coefficient, D, was calculated dividing the radioactivity of the radioconjugate in the organic phase to that in the aqueous phase. Each experiment was performed in triplicate and averaged. In parallel, the aqueous phases were analysed by HPLC to confirm the stability of studied radioconjugate during the experiment period. The lipophilicity value of each radioconjugates was expressed as the logarithm of its D value."}, "hNK1R": {"biological_target": "T1, hNK1R (Homo sapiens, UniProt P25103)", "T1 construct": "expressed in transfected cells; host or cells: CHO-K1 (hNK1-CHO), gift from Dr. Attila Keresztes and Dr. John M. Streicher", "test": "Saturation binding assay of 177Lu-radioconjugates on CHO-NK1R cells", "settings": "for Kd: read-out: Kd ± SD", "protocol": "The saturation binding studies of ^177Lu-radioconjugates were performed using transfected CHO-NK1R cell line, and all radioconjugates were obtained according to the common labelling protocol given above with the same specific activity. In brief, 10^5 cells per well were seeded into 24-well plates and incubated 24 h before the experiment. […] After that time, the assay medium was collected into plastic tubes and cells were washed twice with cold Dulbecco’s PBS. Subsequently, cells were lysed using 1M NaOH and collected into plastic tubes for radioactivity measurement. The radioactivity of collected medium and lysed cells was measured using a Wizard^2 2-Detector Gamma Counter (PerkinElmer, Waltham, MA, USA) with the energy window of 50–500 keV. The study data came from three independent experiments carried out in duplicate, while the results, presented as the Kd and BMAX with SD, were calculated using a total and nonspecific binding (one site) nonlinear regression curve fit (GraphPad Prism version 8.0, GraphPad, San Diego, CA, USA)."}, "hNK1R Q165A mutant": {"tested_on": "hNK1R Q165A mutant", "settings": "read-out: IC50 Q165A mutant hNK1R; Gln165Ala mutation; cited from earlier work"}, "hNK1R His197Ala mutation": {"tested_on": "hNK1R His197Ala mutation", "settings": "versus wild type; cited from earlier work"}, "hNK1R His197Phe mutation": {"tested_on": "hNK1R His197Phe mutation", "settings": "versus wild type; cited from earlier work"}, "[1]": {"settings": "ratio to [177Lu]Lu-DOTA-[Thi8,Met(O2)11]SP"}, "[2]": {"settings": "pH 7.4, logD7.4 (Mean ± SD) 68Ga-"}},
  "note": "Several values for one entry are separate records, joined by “and”; a condition that tells them apart may be missing. Identical values can stand only once. Like-named read-outs stand apart in the source and are kept apart here. Square brackets hold non-standard residues; d marks the D form. Peptide text beside a SMILES is read from it. * marks the point of attachment. DOTA = O=C(O)CN1CCN(CC(=O)O)CCN(CC(=O)*)CCN(CC(=O)O)CC1; Met(O2) = CS(=O)(=O)CC[C@H](N)C(=O)O; 2Thi = N[C@@H](Cc1cccs1)C(=O)O",
  "data": [
    {"smiles": "O=C(O)CN1CCN(CC(=O)O)CCN(CC(=O)N[C@@H](Cc2c[nH]c3ccccc23)C(=O)OCc2cc(C(F)(F)F)cc(C(F)(F)F)c2)CCN(CC(=O)O)CC1", "note": "[[^177Lu]Lu-1d, metal not drawn]", "values": [
      {"measurement": "logD", "setting": "physchem; pH 7.4, logD7.4 (Mean ± SD) 177Lu-", "value": "0.4 ± 0.004"},
      {"measurement": "BMAX ± SD", "setting": "hNK1R; CHO-NK1R cells, 60 min at 37 °C", "value": "0.762 nM and 0.762 ± 0.046 nM"},
      {"measurement": "Kd", "setting": "hNK1R; CHO-NK1R cells, 60 min at 37 °C, aprepitant as blocker", "value": "6.98 ± 0.69", "unit": "nM"},
      {"measurement": "BMAX Ratio to SP", "setting": "hNK1R; [1]", "value": 0.82},
      {"measurement": "Kd Ratio to SP", "setting": "hNK1R; [1]", "value": 1.13}
    ]},
    {"smiles": "CC(=O)N[C@@H](Cc1c[nH]c2ccccc12)C(=O)OCc1cc(C(F)(F)F)cc(C(F)(F)F)c1", "note": "[Compound 1c, 3,5-bis(trifluoromethyl)benzyl acetyl-L-tryptophanate]", "values": [
      {"measurement": "IC50", "setting": "hNK1R Q165A mutant", "value": 8.1, "unit": "nM"},
      {"measurement": "decrease of affinity with His197Ala mutation", "setting": "hNK1R His197Ala mutation", "value": "ten-fold"},
      {"measurement": "effect of His197Phe mutation on affinity", "setting": "hNK1R His197Phe mutation", "value": "no effect"}
    ]},
    {"smiles": "CC(C)C[C@H](NC(=O)CNC(=O)[C@H](Cc1cccs1)NC(=O)[C@H](Cc1ccccc1)NC(=O)[C@H](CCC(N)=O)NC(=O)[C@H](CCC(N)=O)NC(=O)[C@@H]1CCCN1C(=O)[C@H](CCCCN)NC(=O)[C@@H]1CCCN1C(=O)[C@H](CCCNC(=N)N)NC(=O)CN1CCN(CC(=O)O)CCN(CC(=O)O)CCN(CC(=O)O)CC1)C(=O)N[C@@H](CCS(C)(=O)=O)C(N)=O", "note": "[[^177Lu]Lu-DOTA-[Thi^8,Met(O2)^11]SP, metal not drawn, reference compound] ({DOTA}-RPKPQQF[2Thi]GL[Met(O2)]-NH2; N-terminus and C-terminus assumed)", "values": [
      {"measurement": "Kd", "setting": "hNK1R", "value": "6.15 ± 0.64", "unit": "nM"}
    ]},
    {"smiles": "C[C@@H](NC(=O)CN1CCN(CC(=O)O)CCN(CC(=O)O)CCN(CC(=O)O)CC1)C(=O)N[C@H](C)C(=O)N[C@@H](Cc1c[nH]c2ccccc12)C(=O)OCc1cc(C(F)(F)F)cc(C(F)(F)F)c1", "note": "[[^68Ga]Ga-3d, metal not drawn]", "values": [
      {"measurement": "logD", "setting": "physchem; [2]", "value": "-0.259 ± 0.017"}
    ]},
    {"smiles": "O=C(O)CN1CCN(CC(=O)O)CCN(CC(=O)N[C@@H](Cc2c[nH]c3ccccc23)C(=O)OCc2cc(C(F)(F)F)cc(C(F)(F)F)c2)CCN(CC(=O)O)CC1", "note": "[[^68Ga]Ga-1d, metal not drawn]", "values": [
      {"measurement": "logD", "setting": "physchem; [2]", "value": "-0.085 ± 0.015"}
    ]},
    {"smiles": "O=C(O)CN1CCN(CC(=O)O)CCN(CC(=O)NCCCCCC(=O)NCCCCCC(=O)N[C@@H](Cc2c[nH]c3ccccc23)C(=O)OCc2cc(C(F)(F)F)cc(C(F)(F)F)c2)CCN(CC(=O)O)CC1", "note": "[[^68Ga]Ga-5d, metal not drawn]", "values": [
      {"measurement": "logD", "setting": "physchem; [2]", "value": "-0.466 ± 0.016"}
    ]}
  ]
}
